Values of other authors as cited in patent publication US11167054B2, “Activated disinfectant hydrogen peroxide compositions” (LONZA, LLC, priority 2014, dated 2021).
Where two headings read alike, the source gives them in different places.

How the values were obtained:
[1] = test system: Staphylococcus Aureus
[2] = test system: Pseudomonas Aeruginosa
[3] = 6 wt. % hydrogen peroxide solution, 5 minutes contact time
[4] = 6000 ppm (0.6 wt. %) hydrogen peroxide solution, 5 minute contact time

SMILES: OO [hydrogen peroxide]
- Log reduction against Staphylococcus Aureus [1, 3]: ~3 Log
- log reduction against Staphylococcus Aureus [1, 4]: ~1 log
- Log reduction against Pseudomonas Aeruginosa [2, 3]: < 2 Log
- Log reduction against Pseudomonas Aeruginosa [2, 4]: < 1 Log
